Experimental data published in US7015196B1, “Basic monocyclic compounds having Nk2 antagonist action, processes for their preparation, and formulations containing them” (Menarini Ricerche S.p.A., priority 1999, dated 2006).

How the values were obtained:
human NK2 receptor = target: T1, human NK2 receptor (Homo sapiens, UniProt P21452); test: binding test, [125I]NKA competition on membranes of CHO cells transfected with the NK2 receptor of human ileum; details: CHO cell membranes, [125I]NKA 100 pM, 30 min, 20° C.
T1 construct: expressed in transfected cells; host or cells: CHO cells (membranes)
T1 sequence (P21452 1-398): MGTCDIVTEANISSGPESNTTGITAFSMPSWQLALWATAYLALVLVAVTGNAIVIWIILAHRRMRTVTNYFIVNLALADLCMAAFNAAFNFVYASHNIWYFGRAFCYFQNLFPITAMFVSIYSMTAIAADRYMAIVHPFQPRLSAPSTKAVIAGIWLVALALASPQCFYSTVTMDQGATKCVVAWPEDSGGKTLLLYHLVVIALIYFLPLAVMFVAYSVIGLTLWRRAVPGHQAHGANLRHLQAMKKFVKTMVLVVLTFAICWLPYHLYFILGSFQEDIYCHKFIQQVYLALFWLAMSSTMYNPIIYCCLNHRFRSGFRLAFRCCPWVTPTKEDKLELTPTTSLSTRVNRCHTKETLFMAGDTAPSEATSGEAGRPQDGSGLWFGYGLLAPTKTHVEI
Procedure: (§1) The compounds described in the present invention act as antagonists to the NK2 receptor of tachykinins. The biological activity was evaluated in three in vitro functional tests, using rabbit pulmonary artery (RPA), hamster trachea (HT) and rat urinary bladder (RUB), according to the methods described by C. A. Maggi et al., Br. J. Pharmacol., 1990, 100, 588; P. D'Orleans-Juste et al., Eur. J. Pharmacol., 1986, 125, 37; and C. A. Maggi et al., J. Pharmacol. Exp. Ther., 1988, 246, 308. The affinity of the compounds for the human NK2 receptor was evaluated in a binding test using membranes of Chinese hamster ovary (CHO) cells transfected with the NK2 receptor of human ileum and the radioligand [^125I]NKA (Amersham, […] 2000 Ci/mmol) at the concentration of 100 pM in competition studies. The substances under examination were tested in a concentration range between 0.01 nM and […]. At the end of incubation (30 min, 20° C.) the test specimens were filtered, and radioactivity was determined using a gamma-counter.
(§2) The data emerging from the functional studies were expressed as pA2 (O. Arunlakshana and H. O. Shild, Br. J. Pharmacol. Chemother., 1959, 14, 45), and the data emerging from the binding studies were expressed as pKi (log Ki calculated with the LIGAND program; P. J. Munson et al., Anal. Biochem., 1980, 107, 220).

[1] = target: T2, NK2 receptor of tachykinins (Rattus norvegicus, UniProt P16610); test: in vitro functional test, rat urinary bladder (RUB); type: cell-based; details: for Kb: read-out: pA2 RUB (converted)
T2 construct: from tissue; host or cells: rat urinary bladder
T2 sequence (P16610 1-390): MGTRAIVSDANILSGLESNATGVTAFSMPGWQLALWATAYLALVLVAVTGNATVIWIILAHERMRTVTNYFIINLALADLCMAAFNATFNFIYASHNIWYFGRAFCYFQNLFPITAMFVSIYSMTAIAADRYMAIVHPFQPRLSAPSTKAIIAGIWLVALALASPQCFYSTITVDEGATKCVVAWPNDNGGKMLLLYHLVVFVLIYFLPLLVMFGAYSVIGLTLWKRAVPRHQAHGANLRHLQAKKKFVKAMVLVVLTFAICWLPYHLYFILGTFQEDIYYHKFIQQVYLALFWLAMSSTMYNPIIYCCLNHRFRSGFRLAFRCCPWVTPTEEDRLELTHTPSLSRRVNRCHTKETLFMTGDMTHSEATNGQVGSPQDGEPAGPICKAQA
Procedure: as §1, §2

[2] = target: T3, NK2 receptor of tachykinins (Mesocricetus auratus, UniProt P51144); test: in vitro functional test, hamster trachea (HT); type: cell-based; details: read-out: pA2 HT (converted)
T3 construct: from tissue; host or cells: hamster trachea
T3 sequence (P51144 1-384): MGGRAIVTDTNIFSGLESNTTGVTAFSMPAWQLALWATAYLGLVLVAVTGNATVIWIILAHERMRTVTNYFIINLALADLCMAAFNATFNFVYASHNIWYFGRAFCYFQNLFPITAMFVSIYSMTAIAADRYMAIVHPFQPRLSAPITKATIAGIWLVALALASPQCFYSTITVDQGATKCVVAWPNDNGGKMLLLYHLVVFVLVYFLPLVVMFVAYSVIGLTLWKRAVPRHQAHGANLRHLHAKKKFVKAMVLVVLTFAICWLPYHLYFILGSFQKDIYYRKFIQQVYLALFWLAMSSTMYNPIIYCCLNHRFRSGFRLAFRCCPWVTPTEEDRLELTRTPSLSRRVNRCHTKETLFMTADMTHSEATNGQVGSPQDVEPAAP
Procedure: as §1, §2

[3] = target: T4, NK2 receptor of tachykinins (Oryctolagus cuniculus, UniProt P79218); test: in vitro functional test, rabbit pulmonary artery (RPA); type: cell-based; details: read-out: pA2 RPA (converted)
T4 construct: from tissue; host or cells: rabbit pulmonary artery
T4 sequence (P79218 1-384): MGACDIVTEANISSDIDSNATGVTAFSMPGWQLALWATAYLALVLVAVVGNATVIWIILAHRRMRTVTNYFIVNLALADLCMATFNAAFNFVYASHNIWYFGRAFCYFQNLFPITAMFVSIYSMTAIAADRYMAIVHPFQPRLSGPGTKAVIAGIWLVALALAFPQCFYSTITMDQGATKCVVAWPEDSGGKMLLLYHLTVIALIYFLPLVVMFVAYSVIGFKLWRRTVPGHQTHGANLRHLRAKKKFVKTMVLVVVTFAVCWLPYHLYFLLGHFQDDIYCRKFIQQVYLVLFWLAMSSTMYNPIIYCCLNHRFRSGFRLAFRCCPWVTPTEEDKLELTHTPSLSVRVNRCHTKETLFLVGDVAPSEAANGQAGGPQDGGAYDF
Procedure: as §1, §2

Row | Ki (human NK2 receptor) | Kb [1] | Kb [2] | pKi (human NK2 receptor) | Kb [3] | SMILES | pA2 RUB [1]
1 | 50.1 pM | 794 pM | – | – | – | O=C1CC(C(=O)N2CCC(N3CCCCC3)CC2)C(=O)NCC(Cc2ccccc2)NC(=O)C(Cc2ccccc2)NC(=O)C(Cc2c[nH]c3ccccc23)N1 (single isomer, unassigned) [Example 7, cyclo{-Suc[1-(R or S)-(1,4′)-bipiperidinyl-1′-carbonyl]-Trp-Phe[(R)—NH—CH(CH2—C6H5)—CH2NH]-}] | –
2 | – | 631 pM | 1580 pM | 9.4 | 2000 pM | O=C1C[C@@H](NC(=O)CN2CCC(N3CCCCC3)CC2)C(=O)NC[C@@H](Cc2ccccc2)NC(=O)[C@H](Cc2ccccc2)NC(=O)[C@H](Cc2c[nH]c3ccccc23)N1 [Example 1, cyclo{-Suc[1-(R)-2(1,4′)-bipiperidinyl-1′-yl-acetyl amino]-Trp-Phe-[(R)—NH—CH(CH2—C6H5)—CH2NH]-}] | –
3 | 200 pM | 158 pM | – | – | – | O=C1C[C@@H](NC(=O)CN2CCC(N3CCOCC3)CC2)C(=O)NC[C@@H](Cc2ccccc2)NC(=O)[C@H](Cc2ccccc2)NC(=O)[C@H](Cc2c[nH]c3ccccc23)N1 [Example 2, cyclo{-Suc[1-(R)-2(4-morpholin-4-yl-piperidin-1-yl)-acetyl amino]-Trp-Phe-[(R)—NH—CH(CH2—C6H5)—CH2NH]-}] | –

More lines, now with the values behind:

Row | SMILES | Ki (human NK2 receptor) | Kb [1] | Kb [2] | pKi (human NK2 receptor) | Kb [3] | pA2 RUB [1]
4 | O=C1CC(C(=O)N2CCC(N3CCCCC3)CC2)C(=O)NCC(Cc2ccccc2)NC(=O)C(Cc2ccccc2)NC(=O)C(Cc2c[nH]c3ccccc23)N1 (single isomer, unassigned) [Example 8, cyclo{-Suc[1-(S or R)-(1,4′)-bipiperidinyl-1′-carbonyl]-Trp-Phe[(R)—NH—CH(CH2—C6H5)—CH2NH]-}] | 316 pM | – | – | – | – | –
5 | O=C1C[C@@H](NC(=O)CN2CCC(N3CCCCC3)CC2)C(=O)NC(Cc2c[nH]c3ccccc23)C(=O)NC(Cc2ccc(F)cc2)C(=O)N[C@H](Cc2ccccc2)CN1 (stereo partly drawn) [Example 3, cyclo{-Suc[1-(R)-2(1,4′)-bipiperidinyl-1′-yl-acetyl amino]-Trp-Phe-(4-F)-[(R)—NH—CH(CH2—C6H5)—CH2NH]-}] | – | – | – | 9.6 | – | 9.3
6 | O=C1C[C@@H](NC(=O)CN2CCC(N3CCOCC3)CC2)C(=O)NC(Cc2c[nH]c3ccc(F)cc23)C(=O)NC(Cc2ccccc2)C(=O)N[C@H](Cc2ccccc2)CN1 (stereo partly drawn) [Example 4, cyclo{-Suc[1-(R)-2(4-morpholinyl-4-piperidinyl-1-yl-acetyl)amino]-Trp-(5-F)-Phe-[(R)-N H—CH(CH2—C6H5)—CH2NH]-}] | – | – | – | 10.1 | – | 9.7
